According to PubChem BioAssay (NCI):
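Protocol summary: plate cells (96-well), add compound at 5 concentrations, incubate 48 h, interpolate endpoints linearly. TGI: total growth inhibition.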

Key:
Experiment in all cases: NCI anticancer screen, dose series, 48 h
KM12 colon = tested on: KM12 colon
MDA-MB-435 = tested on: MDA-MB-435
CCRF-CEM leukemia = tested on: CCRF-CEM leukemia
NCI/ADR-RES ovarian = tested on: NCI/ADR-RES ovarian
SK-MEL-2 melanoma = tested on: SK-MEL-2 melanoma
NCI-H23 lung = tested on: NCI-H23 lung
OVCAR-5 ovarian = tested on: OVCAR-5 ovarian
RXF 393 renal = tested on: RXF 393 renal
NCI-H522 lung = tested on: NCI-H522 lung
OVCAR-4 ovarian = tested on: OVCAR-4 ovarian
HCC-2998 colon = tested on: HCC-2998 colon

SMILES	TGI (KM12 colon) [µM]	TGI (MDA-MB-435) [µM]	TGI (CCRF-CEM leukemia) [µM]	TGI (NCI/ADR-RES ovarian) [µM]	TGI (SK-MEL-2 melanoma) [µM]	TGI (NCI-H23 lung) [µM]	TGI (OVCAR-5 ovarian) [µM]	TGI (RXF 393 renal) [µM]	TGI (NCI-H522 lung) [µM]	TGI (OVCAR-4 ovarian) [µM]	TGI (HCC-2998 colon) [µM]
CC(C)(C)c1cc(/C=C(\C#N)C2=NCCO2)cc(C(C)(C)C)c1O	15.6	32.3	9.35	10.7	8.55	13.4	10	14.7	9.06	22.8	8.77
O=S(=O)(O)c1ccc(N=Nc2ccccc2)cc1	> 100	> 100	> 100	> 100	> 100	> 100	> 100	> 100	> 100	> 100	> 100
C#CC1(O)CCC2[C@@H]3CCc4cc(Oc5nc(F)nc(-c6c(C)c(C(=O)OCC)n7ccccc67)n5)ccc4C3CC[C@@]21C (some centres undefined)	> 100	> 100	> 100	> 100	> 100	> 100	> 100	> 100	> 100	> 100	> 100
CN(C)Cc1cc(Cl)c(O)c(CN(C)C)c1	> 100	> 100	> 100	> 100	> 100	> 100	> 100	> 100	> 100	> 100	> 100
